Test results taken from ChEMBL document CHEMBL1909533, “Micelles catalyzed chemoselective synthesis 'in water' and biological evaluation of oxygen containing hetero-1,4-naphthoquinones as potential antifungal agents” (2011).
≈ marks a conversion by molar mass, not a printed value.

How the values were obtained:
Type in all cases: functional
Candida albicans [1] = experiment: Antifungal activity against Candida albicans by broth microdilution method
Cryptococcus neoformans [2] = experiment: Antifungal activity against Cryptococcus neoformans by broth microdilution method
Sporothrix schenckii = experiment: Antifungal activity against Sporothrix schenckii by broth microdilution method
[3] = tested on: Trichophyton mentagrophytes; experiment: Antifungal activity against Trichophyton mentagrophytes by broth microdilution method
Aspergillus fumigatus = experiment: Antifungal activity against Aspergillus fumigatus by broth microdilution method
Candida parapsilosis [4] = experiment: Antifungal activity against Candida parapsilosis by broth microdilution method; settings: Lodderomyces parapsilosis
Escherichia coli = experiment: Antibacterial activity against Escherichia coli by micro-broth dilution method
Staphylococcus aureus = experiment: Antibacterial activity against Staphylococcus aureus ATCC 25923 by micro-broth dilution method
Klebsiella pneumoniae = experiment: Antibacterial activity against Klebsiella pneumoniae ATCC 27736 by micro-broth dilution method
Pseudomonas aeruginosa = experiment: Antibacterial activity against Pseudomonas aeruginosa by micro-broth dilution method
Candida albicans [5] = experiment: Ratio of miconazole MIC50 to compound MIC50 for Candida albicans
Candida parapsilosis [6] = experiment: Ratio of 2-Chloro-3-phenylsulfanyl-[1,4]naphthoquinone MIC50 to compound MIC50 for Candida parapsilosis
Candida parapsilosis [7] = experiment: Ratio of 2-chloro-3-(4-hydroxyphenylamino)naphthalene-1,4-dione MIC50 to compound MIC50 for Candida parapsilosis
[8] = tested on: Trichophyton mentagrophytes; experiment: Ratio of fluconazole MIC50 to compound MIC50 for Trichophyton mentagrophytes
[9] = tested on: Trichophyton mentagrophytes; experiment: Ratio of amphotericin-B MIC50 to compound MIC50 for Trichophyton mentagrophytes
Cryptococcus neoformans [10] = experiment: Ratio of miconazole MIC50 to compound MIC50 for Cryptococcus neoformans

Row | Molecule | MIC (Candida albicans [1]) | MIC (Cryptococcus neoformans [2]) | MIC (Sporothrix schenckii) | MIC [3] | MIC (Aspergillus fumigatus) | MIC (Candida parapsilosis [4]) | MIC (Escherichia coli) | MIC (Staphylococcus aureus) | MIC (Klebsiella pneumoniae) | MIC (Pseudomonas aeruginosa) | Ratio (Candida albicans [5]) | Ratio (Candida parapsilosis [6]) | Ratio (Candida parapsilosis [7]) | Ratio [8] | Ratio [9] | Ratio (Cryptococcus neoformans [10])
1 | Cc1ccc(OC2=C(Sc3ccc(C)cc3)C(=O)c3ccccc3C2=O)cc1 | 25 mg/L (≈ 64.7 µM) | 12.5 mg/L (≈ 32.3 µM) | 3.12 mg/L (≈ 8.07 µM) | 1.56 mg/L (≈ 4.04 µM) | > 50 mg/L | 25 mg/L (≈ 64.7 µM) | > 50 mg/L | 12.5 mg/L (≈ 32.3 µM) | > 50 mg/L | > 50 mg/L | – | – | – | – | – | –
2 | NC[C@H]1O[C@H](O[C@H]2[C@H](O)[C@@H](O[C@H]3O[C@H](CO)[C@@H](O)[C@H](N)[C@H]3O)[C@H](N)C[C@@H]2N)[C@H](O)[C@@H](O)[C@@H]1O [KANAMYCIN] | – | – | – | – | – | – | 16 mg/L (≈ 33 µM) | 2 mg/L (≈ 4.13 µM) | > 128 mg/L | 32 mg/L (≈ 66 µM) | – | – | – | – | – | –
3 | O=C1C(Cl)=C(Oc2ccc3ccccc3c2)C(=O)c2ccccc21 | > 50 mg/L | > 50 mg/L | > 50 mg/L | 50 mg/L (≈ 149 µM) | 50 mg/L (≈ 149 µM) | > 50 mg/L | > 50 mg/L | > 50 mg/L | > 50 mg/L | > 50 mg/L | – | – | – | – | – | –
4 | O=C1C(Cl)=C(Oc2cccc3ccccc23)C(=O)c2ccccc21 | 12.5 mg/L (≈ 37.3 µM) | 25 mg/L (≈ 74.7 µM) | 1.56 mg/L (≈ 4.66 µM) | 1.56 mg/L (≈ 4.66 µM) | > 50 mg/L | 12.5 mg/L (≈ 37.3 µM) | 50 mg/L (≈ 149 µM) | 25 mg/L (≈ 74.7 µM) | > 50 mg/L | > 50 mg/L | 2 | – | – | – | – | –
5 | OC(Cn1cncn1)(Cn1cncn1)c1ccc(F)cc1F [FLUCONAZOLE] | 1 mg/L (≈ 3.27 µM) | 0.5 mg/L (≈ 1.63 µM) | 2 mg/L (≈ 6.53 µM) | 1.56 mg/L (≈ 5.09 µM) | 2 mg/L (≈ 6.53 µM) | 1 mg/L (≈ 3.27 µM) | – | – | – | – | – | – | – | – | – | –
6 | Cc1ccc(OC2=C(Cl)C(=O)c3ccccc3C2=O)cc1 | 6.25 mg/L (≈ 20.9 µM) | 12.5 mg/L (≈ 41.8 µM) | 0.78 mg/L (≈ 2.61 µM) | 1.56 mg/L (≈ 5.22 µM) | 25 mg/L (≈ 83.7 µM) | 3.12 mg/L (≈ 10.4 µM) | 25 mg/L (≈ 83.7 µM) | 12.5 mg/L (≈ 41.8 µM) | > 50 mg/L | > 50 mg/L | 4 | 2 | 2 | – | – | –
7 | Cc1ccc(OC2=C(Sc3ccccc3)C(=O)c3ccccc3C2=O)cc1 | 25 mg/L (≈ 67.1 µM) | 12.5 mg/L (≈ 33.6 µM) | 1.56 mg/L (≈ 4.19 µM) | 0.78 mg/L (≈ 2.09 µM) | > 50 mg/L | 12.5 mg/L (≈ 33.6 µM) | > 50 mg/L | 25 mg/L (≈ 67.1 µM) | > 50 mg/L | > 50 mg/L | – | – | – | 2 | 2 | –
8 | O=C1C(Cl)=C(Nc2ccc(O)cc2)C(=O)c2ccccc21 | 1.56 mg/L (≈ 5.2 µM) | 0.78 mg/L (≈ 2.6 µM) | 1.56 mg/L (≈ 5.2 µM) | 1.56 mg/L (≈ 5.2 µM) | 3.12 mg/L (≈ 10.4 µM) | 6.25 mg/L (≈ 20.9 µM) | – | – | – | – | – | – | – | – | – | –
9 | O=C1C(Cl)=C(Oc2ccc(Cl)cc2)C(=O)c2ccccc21 | 12.5 mg/L (≈ 39.2 µM) | 12.5 mg/L (≈ 39.2 µM) | 1.56 mg/L (≈ 4.89 µM) | 1.56 mg/L (≈ 4.89 µM) | > 50 mg/L | 6.25 mg/L (≈ 19.6 µM) | > 50 mg/L | 50 mg/L (≈ 157 µM) | > 50 mg/L | > 50 mg/L | 2 | – | – | – | – | –
10 | Cc1cc(C)cc(OC2=C(Cl)C(=O)c3ccccc3C2=O)c1 | 12.5 mg/L (≈ 40 µM) | 12.5 mg/L (≈ 40 µM) | 1.56 mg/L (≈ 4.99 µM) | 1.56 mg/L (≈ 4.99 µM) | 50 mg/L (≈ 160 µM) | 3.12 mg/L (≈ 9.98 µM) | 50 mg/L (≈ 160 µM) | 25 mg/L (≈ 79.9 µM) | > 50 mg/L | > 50 mg/L | – | 2 | 2 | – | – | –
11 | Cc1cc2c(cc1OC1=C(O)C(=O)c3ccccc3C1=O)C(=O)c1ccccc1C2=O [NEWBOULDIAQUINONE A] | 4.88 mg/L (≈ 11.9 µM) | – | – | – | – | – | – | – | – | – | – | – | – | – | – | –
12 | NCC[C@H](O)C(=O)N[C@@H]1C[C@H](N)[C@@H](O[C@H]2O[C@H](CN)[C@@H](O)[C@H](O)[C@H]2O)[C@H](O)[C@H]1O[C@H]1O[C@H](CO)[C@@H](O)[C@H](N)[C@H]1O [AMIKACIN] | – | – | – | – | – | – | 1 mg/L (≈ 1.71 µM) | 16 mg/L (≈ 27.3 µM) | 2 mg/L (≈ 3.42 µM) | 1 mg/L (≈ 1.71 µM) | – | – | – | – | – | –
13 | COc1ccc(OC2=C(Cl)C(=O)c3ccccc3C2=O)cc1 | 12.5 mg/L (≈ 39.7 µM) | 12.5 mg/L (≈ 39.7 µM) | 1.56 mg/L (≈ 4.96 µM) | 1.56 mg/L (≈ 4.96 µM) | 50 mg/L (≈ 159 µM) | 6.25 mg/L (≈ 19.9 µM) | > 50 mg/L | 50 mg/L (≈ 159 µM) | > 50 mg/L | > 50 mg/L | 2 | – | – | – | – | –
14 | C[C@@H]1[C@H](O)[C@@H](C)/C=C/C=C/C=C/C=C/C=C/C=C/C=C/[C@H](O[C@@H]2O[C@H](C)[C@@H](O)[C@H](N)[C@@H]2O)C[C@@H]2O[C@](O)(C[C@@H](O)C[C@@H](O)[C@H](O)CC[C@@H](O)C[C@@H](O)CC(=O)O[C@H]1C)C[C@H](O)[C@H]2C(=O)O [AMPHOTERICIN B] | 0.39 mg/L (≈ 0.422 µM) | 0.78 mg/L (≈ 0.844 µM) | – | 1.56 mg/L (≈ 1.69 µM) | – | – | – | – | – | – | – | – | – | – | – | –
15 | Clc1ccc(COC(Cn2ccnc2)c2ccc(Cl)cc2Cl)c(Cl)c1 (stereo unspecified) [MICONAZOLE] | 25 mg/L (≈ 60.1 µM) | 12.5 mg/L (≈ 30 µM) | – | < 0.78 mg/L | 12.5 mg/L (≈ 30 µM) | – | – | – | – | – | – | – | – | – | – | –
16 | NC[C@H]1O[C@H](O[C@H]2[C@H](O)[C@@H](O[C@H]3O[C@H](CO)[C@@H](O)[C@H](N)[C@H]3O)[C@H](N)C[C@@H]2N)[C@H](N)C[C@@H]1O [TOBRAMYCIN] | – | – | – | – | – | – | 0.5 mg/L (≈ 1.07 µM) | 0.25 mg/L (≈ 0.535 µM) | 4 mg/L (≈ 8.56 µM) | 1 mg/L (≈ 2.14 µM) | – | – | – | – | – | –
17 | O=C1C=C(Sc2ccccc2)C(=O)c2ccccc21 | 12.5 mg/L (≈ 46.9 µM) | 1.56 mg/L (≈ 5.86 µM) | – | 0.78 mg/L (≈ 2.93 µM) | 25 mg/L (≈ 93.9 µM) | – | – | – | – | – | – | – | – | – | – | –
18 | Cc1ccc(OC2=C(Nc3ccccc3)C(=O)c3ccccc3C2=O)cc1 | 12.5 mg/L (≈ 35.2 µM) | 12.5 mg/L (≈ 35.2 µM) | 1.56 mg/L (≈ 4.39 µM) | 0.78 mg/L (≈ 2.19 µM) | 50 mg/L (≈ 141 µM) | 12.5 mg/L (≈ 35.2 µM) | 50 mg/L (≈ 141 µM) | 50 mg/L (≈ 141 µM) | > 50 mg/L | > 50 mg/L | – | – | – | 2 | 2 | –
19 | O=c1c2oc3ccccc3oc=2c(=O)c2ccccc12 | 6.25 mg/L (≈ 23.7 µM) | 12.5 mg/L (≈ 47.3 µM) | 0.78 mg/L (≈ 2.95 µM) | 1.56 mg/L (≈ 5.9 µM) | 25 mg/L (≈ 94.6 µM) | 3.12 mg/L (≈ 11.8 µM) | 50 mg/L (≈ 189 µM) | 25 mg/L (≈ 94.6 µM) | > 50 mg/L | > 50 mg/L | 4 | 2 | 2 | – | – | –
20 | O=C1C(Cl)=C(Oc2ccccc2)C(=O)c2ccccc21 | 12.5 mg/L (≈ 43.9 µM) | 6.25 mg/L (≈ 22 µM) | 3.12 mg/L (≈ 11 µM) | 0.78 mg/L (≈ 2.74 µM) | 50 mg/L (≈ 176 µM) | 12.5 mg/L (≈ 43.9 µM) | > 50 mg/L | 50 mg/L (≈ 176 µM) | > 50 mg/L | > 50 mg/L | – | – | – | 2 | 2 | 2
21 | GENTAMICIN | – | – | – | – | – | – | 0.18 mg/L | 0.78 mg/L | 0.78 mg/L | 0.39 mg/L | – | – | – | – | – | –
22 | NYSTATIN | 7.8 mg/L | 3.5 mg/L | 13.2 mg/L | – | – | – | – | – | – | – | – | – | – | – | – | –
23 | O=C1C(Cl)=C(Oc2ccccc2OC2=C(Cl)C(=O)c3ccccc3C2=O)C(=O)c2ccccc21 | 50 mg/L (≈ 102 µM) | > 50 mg/L | 25 mg/L (≈ 50.9 µM) | 50 mg/L (≈ 102 µM) | > 50 mg/L | 50 mg/L (≈ 102 µM) | > 50 mg/L | > 50 mg/L | > 50 mg/L | > 50 mg/L | – | – | – | – | – | –
